From patent US11753407B2, “Compounds for treating spinal muscular atrophy” (PTC Therapeutics, Inc., priority 2012, dated 2023)

Columns and labels:
[1] = tested on: Smn protein in SMA patient fibroblast cells (GM03813); experiment: Smn protein assay in cultured cells (SMN HTRF); type: cell-based, human; conditions: SMA patient fibroblast cells, 48 hours; for maximum fold (Fold) increase of Smn protein: 7-point concentration data, fold relative to vehicle control; for EC1.5x for Smn protein expression: 7-point concentration curve, SMN HTRF, concentration producing 1.5 times Smn protein vs DMSO vehicle control
Outline: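 Smn protein abundance in treated SMA fibroblasts was measured by HTRF after 48 h compound exposure. The reported EC1.5× is the concentration producing 1.5 times vehicle Smn levels.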

[2] = tested on: SMN2 minigene mRNA (SMN2-A minigene) in HEK293H cells; experiment: SMN2 minigene mRNA splicing RT-qPCR assay in cultured cells; type: cell-based, human; conditions: Homo sapiens, HEK293-H; concentration increasing full length SMN2 mRNA 1.5-fold relative to vehicle-treated cells; HEK293H cells with SMN2-A minigene, 24 hours, 7-point concentration data; read-out: EC1.5x for production of full length SMN2 mRNA
Outline: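 Potency reflects the concentration that lifts full-length SMN2 minigene mRNA 1.5-fold above vehicle in stably transfected HEK293H cells after 24 h of treatment. Transcript abundance came from RT-qPCR as (1+E)^−Ct, normalized to GAPDH; endogenous SMN1/SMN2 are not detected.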

| Structure (SMILES) | maximum fold (Fold) increase of Smn protein [1] | melting point [°C] | EC (1.5-fold increase) [2] [µM] | EC1.5x for Smn protein expression [1] |
| --- | --- | --- | --- | --- |
| CCN(CC)C1CCN(c2cc(C)c3nc(-c4ccc(OC)c(OC)c4)cc(=O)n3c2)CC1 [Compound 435, 7-[4-(diethylamino)piperidin-1-yl]-2-(3,4-dimethoxyphenyl)-9-methyl-4H-pyrido[1,2-a]pyrimidin-4-one] | *** (a fold increase between >1.35 and ≤1.5 is indicated by three stars (***)) | 149 to 155 | 0.1 to 0.3 |  |
| CCc1cc(C2CCN(CC)CC2)cn2c(=O)cc(-c3ccc(OC)c(OC)c3)nc12 [Compound 436, 2-(3,4-dimethoxyphenyl)-9-ethyl-7-(1-ethylpiperidin-4-yl)-4H-pyrido[1,2-a]pyrimidin-4-one] | ** (a fold increase between >1.2 and ≤1.35 is indicated by two stars (**)) | 157 to 162 | 0.3 to 1 |  |
| Cc1cn2cc(-c3cc(=O)n4cc(N5CCC(N6CCCC6)CC5)ccc4n3)ccc2n1 [Compound 437, 2-(2-methylimidazo[1,2-a]pyridin-6-yl)-7-[4-(pyrrolidin-1-yl)piperidin-1-yl]-4H-pyrido[1,2-a]pyrimidin-4-one] | **** (a fold increase between >1.5 and ≤1.65 is indicated by four stars (****)) | 230 to 232 | 0.1 to 0.3 | *** (an EC1.5× between >0.3 μM and ≤1 μM is indicated by three stars (***)) |
| Cc1cn2cc(-c3cc(=O)n4cc(C5CCNCC5)ccc4n3)ccc2n1 [Compound 438, 2-(2-methylimidazo[1,2-a]pyridin-6-yl)-7-(piperidin-4-yl)-4H-pyrido[1,2-a]pyrimidin-4-one] | ***** (a fold increase >1.65 is indicated by five stars (*****)) | 298 to 300 | < 0.1 | **** (an EC1.5x≤0.3 μM is indicated by four stars (****)) |
| Cc1nc2ccc(-c3cc(=O)n4cc(C5CCN(C)CC5)ccc4n3)cc2s1 [Compound 439, 2-(2-methyl-1,3-benzothiazol-6-yl)-7-(1-methylpiperidin-4-yl)-4H-pyrido[1,2-a]pyrimidin-4-one] | *** (a fold increase between >1.35 and ≤1.5 is indicated by three stars (***)) | 240 to 242 | 0.1 to 0.3 | ** (an EC1.5× between >1 μM and ≤3 μM is indicated by two stars (**)) |
| Cc1cn2nc(-c3cc(=O)n4cc(N5CCN(C)CC5)ccc4n3)cc2cn1 [Compound 440, 7-(4-methylpiperazin-1-yl)-2-(6-methylpyrazolo[1,5-a]pyrazin-2-yl)-4H-pyrido[1,2-a]pyrimidin-4-one] | **** (a fold increase between >1.5 and ≤1.65 is indicated by four stars (****)) | 230 to 240 | < 0.1 | **** (an EC1.5x≤0.3 μM is indicated by four stars (****)) |
| Cc1cn2nc(-c3cc(=O)n4cc(N5CCN[C@@H](C)C5)ccc4n3)cc2cn1 [Compound 441, 7-[(3S)-3-methylpiperazin-1-yl]-2-(6-methylpyrazolo[1,5-a]pyrazin-2-yl)-4H-pyrido[1,2-a]pyrimidin-4-one] | ***** (a fold increase >1.65 is indicated by five stars (*****)) | 235 to 240 | < 0.1 | **** (an EC1.5x≤0.3 μM is indicated by four stars (****)) |
| Cc1cn2nc(-c3cc(=O)n4cc(N5C[C@@H](C)N[C@@H](C)C5)ccc4n3)cc2cn1 [Compound 442, 7-[(3R,5S)-3,5-dimethylpiperazin-1-yl]-2-(6-methylpyrazolo[1,5-a]pyrazin-2-yl)-4H-pyrido[1,2-a]pyrimidin-4-one] | ***** (a fold increase >1.65 is indicated by five stars (*****)) | 258 to 260 | < 0.1 | **** (an EC1.5x≤0.3 μM is indicated by four stars (****)) |
| CN(C)c1ccc(-c2cc(=O)n3cc(C4=CCNCC4)ccc3n2)cn1 [Compound 444, 2-[6-(dimethylamino)pyridin-3-yl]-7-(1,2,3,6-tetrahydropyridin-4-yl)-4H-pyrido[1,2-a]pyrimidin-4-one] | *** (a fold increase between >1.35 and ≤1.5 is indicated by three stars (***)) | 255 to 257 | 0.3 to 1 | ** (an EC1.5× between >1 μM and ≤3 μM is indicated by two stars (**)) |
| CCN(CC)C1CCN(c2ccc3nc(-c4ccc5nc(C)cn5c4)cc(=O)n3c2)CC1 [Compound 445, 7-[4-(diethylamino)piperidin-1-yl]-2-(2-methylimidazo[1,2-a]pyridin-6-yl)-4H-pyrido[1,2-a]pyrimidin-4-one] | *** (a fold increase between >1.35 and ≤1.5 is indicated by three stars (***)) | 208 to 210 | < 0.1 | *** (an EC1.5× between >0.3 μM and ≤1 μM is indicated by three stars (***)) |
| COc1ccc(-c2cc(=O)n3cc(N4CCC(N(C)CCO)CC4)cc(C)c3n2)cc1OC [Compound 446, 2-(3,4-dimethoxyphenyl)-7-{4-[(2-hydroxyethyl)(methyl)amino]piperidin-1-yl}-9-methyl-4H-pyrido[1,2-a]pyrimidin-4-one] | *** (a fold increase between >1.35 and ≤1.5 is indicated by three stars (***)) | 164 to 171 | < 0.1 | ** (an EC1.5× between >1 μM and ≤3 μM is indicated by two stars (**)) |
| CCc1cc(N2CCN[C@H](C)C2)cn2c(=O)cc(-c3ccc(OC)c(OC)c3)nc12 [Compound 447, 2-(3,4-dimethoxyphenyl)-9-ethyl-7-[(3R)-3-methylpiperazin-1-yl]-4H-pyrido[1,2-a]pyrimidin-4-one] | * (A maximum fold increase of ≤1.2 is indicated by one star (*)) | 140 to 147 | 0.1 to 0.3 |  |
| Cc1cn2cc(-c3cc(=O)n4cc(C5CCN(C)CC5)ccc4n3)ccc2n1 [Compound 448, 2-(2-methylimidazo[1,2-a]pyridin-6-yl)-7-(1-methylpiperidin-4-yl)-4H-pyrido[1,2-a]pyrimidin-4-one] | ***** (a fold increase >1.65 is indicated by five stars (*****)) | 218 to 220 | < 0.1 | **** (an EC1.5x≤0.3 μM is indicated by four stars (****)) |
| CN1CC=C(c2ccc3nc(-c4ccc5c(cnn5C)c4)cc(=O)n3c2)CC1 [Compound 449, 2-(1-methyl-1H-indazol-5-yl)-7-(1-methyl-1,2,3,6-tetrahydropyridin-4-yl)-4H-pyrido[1,2-a]pyrimidin-4-one] | **** (a fold increase between >1.5 and ≤1.65 is indicated by four stars (****)) | 148 to 150 | < 0.1 | **** (an EC1.5x≤0.3 μM is indicated by four stars (****)) |
| CN1CC=C(c2ccc3nc(-c4ccc(N(C)C)nc4)cc(=O)n3c2)CC1 [Compound 450, 2-[6-(dimethylamino)pyridin-3-yl]-7-(1-methyl-1,2,3,6-tetrahydropyridin-4-yl)-4H-pyrido[1,2-a]pyrimidin-4-one] | ** (a fold increase between >1.2 and ≤1.35 is indicated by two stars (**)) | 214 to 216 | 0.3 to 1 |  |
| CCN(CC)C1CCN(c2ccc3nc(-c4cc5c(C)nc(C)cn5n4)cc(=O)n3c2)CC1 [Compound 451, 7-[4-(diethylamino)piperidin-1-yl]-2-(4,6-dimethylpyrazolo[1,5-a]pyrazin-2-yl)-4H-pyrido[1,2-a]pyrimidin-4-one] | ***** (a fold increase >1.65 is indicated by five stars (*****)) | 232 to 235 | < 0.1 | *** (an EC1.5× between >0.3 μM and ≤1 μM is indicated by three stars (***)) |
| Cc1cn2nc(-c3cc(=O)n4cc(C5CCN(C)CC5)ccc4n3)cc2c(C)n1 [Compound 453, 2-(4,6-dimethylpyrazolo[1,5-a]pyrazin-2-yl)-7-(1-methylpiperidin-4-yl)-4H-pyrido[1,2-a]pyrimidin-4-one] | ***** (a fold increase >1.65 is indicated by five stars (*****)) | 220 to 222 | < 0.1 | **** (an EC1.5x≤0.3 μM is indicated by four stars (****)) |
| CCN1CCC(c2ccc3nc(-c4cc5c(C)nc(C)cn5n4)cc(=O)n3c2)CC1 [Compound 454, 2-(4,6-dimethylpyrazolo[1,5-a]pyrazin-2-yl)-7-(1-ethylpiperidin-4-yl)-4H-pyrido[1,2-a]pyrimidin-4-one] | ***** (a fold increase >1.65 is indicated by five stars (*****)) | 170 to 172 | < 0.1 | **** (an EC1.5x≤0.3 μM is indicated by four stars (****)) |
